Source: patent publication US20230406850A1, “CRYSTALLINE FORM OF HETEROCYCLIC COMPOUND, PREPARATION METHOD THEREFOR AND APPLICATION THEREOF” (WUHAN LL SCIENCE AND TECHNOLOGY DEVELOPMENT CO., LTD., priority 2020, published 2023)
Values after ≈ are worked out from the molar mass of the structure shown.

Tests used:
Assay type in all cases: physicochemical
[1] = Physical and chemical stability (stability boxes, XRPD and HPLC); settings: for Purity -7 days (peak area %) / XRPD: 7 days
Experimental: About 10 mg of crystalline forms I, III and V were placed in the stability boxes at 40° C./75% RH (open) and 60° C. (covered) for seven days, and some samples were taken out for XRPD and HPLC tests at 0 and 7 days, respectively, to investigate their physical and chemical stability.

[2] = Dynamic vapor sorption (DVS) hygroscopicity
Experimental: The solid was analyzed by DVS using IGA sorp dynamic vapor sorption instrument. • Temperature: 25° C. • Gas flow: 250 mL/min. • Scan cycle: 2. • Minimum test time: 30 min. • Maximum test time: 2 hours. • Waiting for balance: 98%.

[3] = Solubility in biological media SGF, FaSSIF and FeSSIF
Experimental: Compared with other crystalline forms, crystalline forms I, III and V show good solid properties, so their solubility was tested respectively.
10 mg of the sample was weighed, and then 2.0 mL of biological media buffer (i.e. the target concentration is 5 mg/mL) was added to form a suspension. The mixture was put in a constant temperature water bath shaker (37° C., 100 rpm), and sampled 500 μL at 0.5, 2 and 24 hours respectively. After filtration, the pH value and HPLC concentration of filtrate were tested respectively, and the solid sample obtained by filtration was tested by XRPD.

[4] = Solubility in DMSO and DMSO/water mixed solvents
[5] = Mechanical stability test (grinding and pelleting)
Experimental: The mechanical stability of crystalline forms I and III were investigated by grinding and pelleting. Grinding test method: the sample to be measured was put in a mortar and grinded for 2 minutes and 5 minutes respectively, then XRPD was test, and the changes of crystalline form and crystallinity were observed. Pelleting test method: the sample was placed in the die of tablet press, kept at 40 MPa for one minute, and then the crystalline form taken out to test XRPD.

[6] = Stability of crystalline form III slurried in DMSO/water mixed solvents; settings: for The experimental results (crystalline form): slurried three days at room temperature

## COC(=O)N1CCO[C@@H](Cc2c(-c3c(F)cc(S(N)(=O)=O)cc3F)nc3cc(Cl)ccn23)C1 [Crystalline form III, methyl (S)-2-((7-chloro-2-(2,6-difluoro-4-sulfamoylphenyl)imidazo[1,2-a]pyridin-3-yl)methyl)morpholine-4-carboxylate]
[1]; 0 days
  Initial purity (Peak area %): 99.34 peak area %
[1]; 40° C./75% RH (open)
  Purity -7 days (peak area %): 99.35 peak area %
  XRPD: Constant
[1]; 40° C./75% RH and 60° C., seven days
  stability conclusion in words: good physical and chemical stability
[1]; 60° C. (covered)
  Purity -7 days (peak area %): 99.35 peak area %
  XRPD: Constant
[2]
  XRPD before and after the DVS test: no obvious change in the XRPD
[2]; 25° C.
  DVS pattern, behaviour in words: the water content changes little in a wide humidity range
[3]; FaSSIF, 0.5 h
  XRPD of remaining solid: Unchanged
  pH of filtrate: 6.4
[3]; FaSSIF, 0.5 h, 37° C.
  Solubility: 23 µg/mL (≈ 45.9 µM)
[3]; FaSSIF, 2 h
  XRPD of remaining solid: Unchanged
  pH of filtrate: 6.4
[3]; FaSSIF, 2 h, 37° C.
  Solubility: 25 µg/mL (≈ 49.9 µM)
[3]; FaSSIF, 24 h
  XRPD of remaining solid: Unchanged
  pH of filtrate: 6.4
[3]; FaSSIF, 24 h, 37° C.
  Solubility: 33 µg/mL (≈ 65.9 µM)
[3]; FeSSIF, 0.5 h
  XRPD of remaining solid: Unchanged
  pH of filtrate: 4.9
[3]; FeSSIF, 0.5 h, 37° C.
  Solubility: 74 µg/mL (≈ 148 µM)
[3]; FeSSIF, 2 h
  XRPD of remaining solid: Unchanged
  pH of filtrate: 4.8
[3]; FeSSIF, 2 h, 37° C.
  Solubility: 88 µg/mL (≈ 176 µM)
[3]; FeSSIF, 24 h
  XRPD of remaining solid: Unchanged
  pH of filtrate: 4.9
[3]; FeSSIF, 24 h, 37° C.
  Solubility: 120 µg/mL (≈ 240 µM)
[3]; SGF, 37 °C, simulated gastric fluid, thermodynamic from solid, SGF, 0.5 h, 37° C., read-out: Solubility (visual observation)
  solubility at 0.5 h: > 5000 µg/mL
[3]; SGF, 0.5 h
  pH of filtrate: 1.0
[4]; aqueous with cosolvent or surfactant or cyclodextrin, DMSO/Water 1:2, RT
  Solubility: ~500 µg/mL (≈ 998 µM)
[4]; aqueous with cosolvent or surfactant or cyclodextrin, DMSO/Water 1:3, RT
  Solubility: ~280 µg/mL (≈ 559 µM)
[4]; aqueous with cosolvent or surfactant or cyclodextrin, DMSO/Water 1:4, RT
  Solubility: < 250 µg/mL
[4]; organic solvent or mixture, DMSO, RT
  Solubility: > 200000 µg/mL
[5]; 40 MPa, 1 min
  crystallinity after pelleting: decreases obviously
[5]; grinding 2 min and 5 min
  crystalline form and crystallinity after grinding: no obvious change in crystalline form and crystallinity
[6]; DMSO/Water 1/2 V/V
  The experimental results (crystalline form): Crystalline form III
[6]; DMSO/Water 1/4 V/V
  The experimental results (crystalline form): Crystalline form III
[6]; DMSO/Water 2/3 V/V
  The experimental results (crystalline form): Crystalline form III
[6]; room temperature
  water content of DMSO/water in which the form is stable without crystal transformation: higher than 60 % (volume percentage)
